From ChEMBL document CHEMBL4602609, “Virtual screening to identify potent sepiapterin reductase inhibitors” (Bioorg Med Chem Lett, 2020)

Target: Sepiapterin reductase (Homo sapiens, UniProt P35270)
Experiment: Inhibition of sepiapterin reductase (unknown origin)
Settings: not given

Sepiapterin reductase, sequence (P35270 whole entry): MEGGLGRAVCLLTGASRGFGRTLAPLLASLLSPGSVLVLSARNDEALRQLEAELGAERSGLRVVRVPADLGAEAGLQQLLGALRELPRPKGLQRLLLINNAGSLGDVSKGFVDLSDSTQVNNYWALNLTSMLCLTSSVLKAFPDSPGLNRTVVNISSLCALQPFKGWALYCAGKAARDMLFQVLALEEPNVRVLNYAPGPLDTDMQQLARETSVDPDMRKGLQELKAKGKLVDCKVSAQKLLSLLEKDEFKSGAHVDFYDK

Compound	pIC50
CCOC(=O)C1=C(O)C2(CCC(=CC(=O)OC)CC2)c2ccc(Cl)cc2C1=O (stereo not given)	5.39

Same assay, conditions: read-out: IC50

Compound	IC50 [nM]
COc1ccc(O)c(C(=O)c2cnc3c(c2)c(C)nn3C)c1	2500
Cc1nn(-c2ccccc2)c2ncc(C(=O)c3cc(F)ccc3O)cc12	180
Cc1ccc(O)c(C(=O)c2cnc3c(c2)c(C)nn3-c2ccc(F)cc2)c1	> 19000
Cc1nn(-c2ccc(F)cc2)c2ncc(C(=O)c3ccccc3O)cc12	820
Cc1ccnc(-n2nc(C)c3cc(C(=O)c4ccccc4O)cnc32)c1	50
Cc1nn(-c2ccccc2)c2ncc(C(=O)c3ccccc3O)cc12	860
Cc1ccc(O)c(C(=O)c2cnc3c(c2)c(C)nn3-c2ccccn2)c1	1720
Cc1nn(-c2ccccn2)c2ncc(C(=O)c3ccccc3O)cc12	180
Cc1nn(CCO)c2ncc(C(=O)c3cc(F)ccc3O)cc12	50
Cc1nn(C)c2ncc(C(=O)c3ccccc3O)cc12	80
Cc1ccc(O)c(C(=O)c2cnc3c(c2)c(C)nn3C)c1	970
Cc1cccc(-n2nc(C)c3cc(C(=O)c4ccccc4O)cnc32)c1	1360
Cc1nn(-c2ccccn2)c2ncc(C(=O)N(C)C)cc12	> 19000
Cc1nn(-c2ccncn2)c2ncc(C(=O)c3ccccc3O)cc12	140
COc1ccc(O)c(C(=O)c2cnc3c(c2)c(C)nn3-c2ccccc2)c1	17000
Cc1nn(C2CCCS2(=O)=O)c2ncc(C(=O)c3cc(F)ccc3O)cc12 (stereo not given)	20
Cc1nn(-c2ccccc2F)c2ncc(C(=O)c3ccccc3O)cc12	50
Cc1nn(C)c2ncc(C(=O)c3cc(F)ccc3O)cc12	40
Cc1ccc(-n2nc(C)c3cc(C(=O)c4cc(C)ccc4O)cnc32)cc1	> 19000
Cc1nn(CCO)c2ncc(C(=O)c3cc(Cl)ccc3O)cc12	40
Cc1ccc(O)c(C(=O)c2cnc3c(c2)c(C)nn3-c2ccccc2)c1	> 19000
COc1ccc(O)c(C(=O)c2cnc3c(c2)c(C)nn3-c2cccc(Cl)c2)c1	> 19000
Cc1nn(-c2ccccn2)c2ncc(C(=O)c3cc(Cl)ccc3O)cc12	80
Cc1nn(C2CCOC2)c2ncc(C(=O)c3ccccc3O)cc12 (stereo not given)	30
Cc1nn(-c2ccccn2)c2ncc(C(=O)O)cc12	> 19000
Cc1nn(-c2ncccn2)c2ncc(C(=O)c3ccccc3O)cc12	140
COc1ccc(O)c(C(=O)c2cnc3c(c2)c(C)nn3-c2cccc(C)c2)c1	> 19000
Cc1nn(C2CCOCC2)c2ncc(C(=O)c3ccccc3O)cc12	20
Cc1n[nH]c2ncc(C(=O)c3cc(F)ccc3O)cc12	50
Cc1nn(-c2ccccn2)c2ncc(C(=O)c3cc(F)ccc3O)cc12	40

Same assay, conditions: read-out: pIC50 (converted)

Compound	IC50 [nM]
CCCc1cc(C(=O)N2CCC(C3Nc4ccccc4S(=O)(=O)N3)CC2)[nH]n1 (stereo not given)	2950
CC1(C)C(O)=C(C(N)=O)C(=O)c2cc(C(=O)NCCc3ccccc3)ccc21	3240
FC(F)(F)Oc1cccc(-n2nnnc2N2CCN(c3ncnc4sc5c(c34)CCC5)CC2)c1	7590
O=C(Nc1cccc(C(F)(F)F)c1)N1CCC(S(=O)(=O)Nc2nccs2)CC1	9550
Cc1nn(-c2ccccn2)c2ncc(C(=O)c3ccccc3O)cc12	66.1
Cc1cc(C(=O)C2C(=O)CC(C)CC2=O)c(C)c2c1S(=O)(=O)CCc1cn(C)nc1-2 (stereo not given)	324
O=S(=O)(Nc1nccs1)c1ccc2c(c1)OCCN2CCc1ccncc1	575
CCOC(=O)CNCc1c(C(=O)CC)c2cc(OC)c(Br)cc2n1C	7940
O=C(Nc1nc2ccc(CN3CCCCC3)cc2n1[C@H]1CC[C@@H](C(=O)O)CC1)c1ccc(F)cc1	3020
Cc1ccc(C(=O)c2ccccc2O)c(O)n1	8130
O=C(CN(c1cccc(Cl)c1)S(=O)(=O)c1cccnc1)N[C@H]1CC[C@H](n2c(=O)[nH]c3ccccc32)CC1	9120
CC1(C)C=Cc2c(c(CCO)c3occ(-c4ccc(O)c(O)c4)c(=O)c3c2O)O1	6170
CCOC(=O)c1c(C)n(C)c2cc(Nc3ccccc3)c(O)cc12	6760
COc1cc(C(F)(F)F)ccc1-c1nccc2cc(S(=O)(=O)Nc3ccc(F)cn3)ccc12	1780
Cn1nc(-c2cccnc2)c2c1NC(=O)C[C@@H]2c1ccc2cccc(O)c2n1	4370
O=S(=O)(Nc1ccccn1)c1ccc2c(c1)OCCO2	603
COc1cc(C(F)(F)F)ccc1-c1nc(Cl)cc2cc(S(=O)(=O)Nc3nccs3)ccc12	1780
O=C(O)c1ccc2c(C(c3ccc(Cl)cc3Cl)c3c[nH]c4cc(C(=O)O)ccc34)c[nH]c2c1	9550
CCn1ncc(C(=O)c2cc(Cl)c(N(C)S(=O)(=O)N(C)C)cc2OC)c1O	57.5
